Positions of bridges follow the written chain, without caps; N, C: chain ends. 'PEG'‑succ = not defined here
Columns and labels:
[1] = test system: human leukemic UT-7 EPO dependent cell line; experiment: EPO activity in a cell culture assay (UT-7 EPO dependent cell line); type: cell-based; details: for ED50 (effective dose giving 50% of maximum response): UT-7 EPO dependent cell line
Procedure: Precise Length EMP-dimers with linkers of different lengths were assayed for EPO activity in a cell culture assay (human leukemic UT-7 EPO dependent cell line). Recombinant EPO and the EMP monomer peptides were included as controls, where the monomer is designated as “mono” in Table 1.
The short linker in the precise length EMP-dimer (designated “s” in Table 1) was -(‘PEG’-succ)2-‘PEG’-(succ-‘PEG’)2-. The medium linker (designated “m” in Table 1) was -(‘PEG’-succ)6-‘PEG’-(succ-‘PEG’)6- and the long linker (designated “1” in Table 1) was -(‘PEG’-succ)8-‘PEG’-(succ-‘PEG’)8-.
Table 1 presents the mean OD's for each peptide sample.
Table 2 presents the mean OD's for recombinant EPO sample.
It was clear, from the results presented above, that the ED50 (effective dose giving 50% of maximum response) values were as presented in Table 3.

[2] = test system: BCL, turnor cell line; details: disulfide bond between the cysteines; Terskikh, et al.; cited from earlier work
[3] = Solubility in solvents; type: physicochemical
[4] = test system: elastase; experiment: Polyamide stability to protease digestion, HPLC analysis (elastase); details: 24 hours; 1 mg/ml in 1% ammonium bicarbonate, enzyme:substrate 1:100, 37° C.
Procedure: (§1) The compounds produced in Examples 8 and 9 were separately dissolved at 1 mg/ml in a 1% ammonium bicarbonate solution. In separate tubes, these solutions were treated with trypsin, chymotrypsin and elastase (enzyme:substrate ratio 1:100, 37° C.). Aliquots (20 μl) were withdrawn at intervals and analyzed by HPLC.

[5] = test system: trypsin; experiment: Polyamide stability to protease digestion, HPLC analysis (trypsin); details: 24 hours; 1 mg/ml in 1% ammonium bicarbonate, enzyme:substrate 1:100, 37° C.
Procedure: as §1

[6] = test system: chymotrypsin; experiment: Polyamide stability to protease digestion, HPLC analysis (chymotrypsin); details: 24 hours; 1 mg/ml in 1% ammonium bicarbonate, enzyme:substrate 1:100, 37° C.
Procedure: as §1

## erythropoietin mimetic peptide monomer, GGLYACHMGPMTWVCQPLRG (SEQ ID NO:1), control [EMP monomer, reference compound]
[1]
  ED50 (effective dose giving 50% of maximum response): 20,000 pM
[1]; concentration 1 × 10^−1 μM
  mean OD: .878
[1]; concentration 1.11 × 10^−2 μM
  mean OD: .373
[1]; concentration 1.24 × 10^−3 μM
  mean OD: .078
[1]; concentration 1.37 × 10^−4 μM
  mean OD: .089
[1]; concentration 3.33 × 10^−2 μM
  mean OD: .673
[1]; concentration 3.70 × 10^−3 μM
  mean OD: .210
[1]; concentration 4.12 × 10^−4 μM
  mean OD: .078

## amide-GRLPQCVWTMPGMHCAYLGG-COCH2ON═CH—CO-(‘PEG’-succ)12-‘PEG’-CH═NOCH2CO-GGLYACHMGPMTWVCQPLRG-amide [EMP-m (medium dimer)]
[1]
  ED50 (effective dose giving 50% of maximum response): 1 pM
[1]; concentration 1 × 10^−1 μM
  mean OD: .884
[1]; concentration 1.11 × 10^−2 μM
  mean OD: .876
[1]; concentration 1.24 × 10^−3 μM
  mean OD: .916
[1]; concentration 1.37 × 10^−4 μM
  mean OD: .760
[1]; concentration 1.52 × 10^−5 μM
  mean OD: .597
[1]; concentration 1.69 × 10^−6 μM
  mean OD: .641
[1]; concentration 1.88 × 10^−7 μM
  mean OD: .363
[1]; concentration 2.09 × 10^−8 μM
  mean OD: .287
[1]; concentration 2.32 × 10^−9 μM
  mean OD: .246
[1]; concentration 3.33 × 10^−2 μM
  mean OD: .902
[1]; concentration 3.70 × 10^−3 μM
  mean OD: .888
[1]; concentration 4.12 × 10^−4 μM
  mean OD: .805
[1]; concentration 4.57 × 10^−5 μM
  mean OD: .637
[1]; concentration 5.08 × 10^−6 μM
  mean OD: .712
[1]; concentration 5.65 × 10^−7 μM
  mean OD: .469
[1]; concentration 6.27 × 10^−8 μM
  mean OD: .350
[1]; concentration 6.97 × 10^−9 μM
  mean OD: .280

## ADGACRNPWC (H-ADGACRNPWC-{'PEG'‑succ-'PEG'‑succ-'PEG'‑succ-'PEG'‑succ-'PEG'‑succ-'PEG'‑succ-'PEG'‑succ-'PEG'‑succ-Lys(AoA)-NH2}; disulfide 5-10 (inferred); reading uncertain; also: four copies oximated to fluorescein-labelled Lys2Lys template (tetrameric chemobody)) [phage-derived peptide]
[2]
  binding to the BCL tumor cell line: bound

## Recombinant EPO: recombinant erythropoietin, control
[1]; EPO 1.85 ng/ml
  mean OD: .878
[1]; EPO 5.56 ng/ml
  mean OD: .885
[1]; EPO 16.7 ng/ml
  mean OD: .920
[1]; EPO 50 ng/ml
  mean OD: .917
[1]; EPO .00254 ng/ml
  mean OD: .101
[1]; EPO .00762 ng/ml
  mean OD: .108
[1]; EPO .0229 ng/ml
  mean OD: .124
[1]; EPO .0686 ng/ml
  mean OD: .179
[1]; EPO .206 ng/ml
  mean OD: .362
[1]; EPO .617 ng/ml
  mean OD: .650
[1]
  ED50 (effective dose giving 50% of maximum response): 25 pM

## Fmoc-Ser(But)-(‘PEG’-succ)8-Abu-OH
[3]
  solubility in the water/acetonitrile/TFA HPLC solvent system: perfectly soluble

## H-PQPQPKPQPQPQPQPKPQPKPEPE-NH2 [SEQ ID NO:5]
[4]
  digestion by elastase: stable
[5]
  digestion by trypsin: digested extensively
[6]
  digestion by chymotrypsin: stable
